Data set [1] concerns B16. Nature of the data set: Compound was tested for cytotoxic activity against […] melanoma cells. The class given is functional, cell-based, Mus musculus.
The nature of data set [2]: Water solubility at 37 degree C. The class given is ADME. The following applies: buffer.
The nature of data set [3]: Compound was tested for growth Inhibition against human TIG-1-20 fibroblast cells. It is filed as functional, cell-based.
Data set [4] relates to B16. Nature of the data set: Compound was tested for growth Inhibition against B16 melanoma cells. It is filed as functional, cell-based, Mus musculus.

Take `CC1CN1CC(O)CC1CC1COC(CO)CO` (centres undefined): the IC50 in the data set on B16 [1] was 0.000029 M,mol dme-3; in data set [3] it was 0.000041 M,mol dme-3. The S in data set [2] is given as 0.0081 M,mol dme-3.
`CC1CN1CC(O)CC1CC1COC(COC(CO)CO)COC(CO)CO` (centres undefined): the IC50 is 0.00005 M,mol dme-3 in the data set on B16 [1] and 0.000068 M,mol dme-3 in data set [3]. Besides, in data set [2], the S was > 0.01 M,mol dme-3.
Take `CC1CN1CC(O)CC1CC1` (centres undefined): the IC50 in the data set with B16 [4] is recorded as 5.4e-6 M,mol dme-3; in data set [3], 0.000018 M,mol dme-3. In addition, the S in data set [2] is < 0.001 M,mol dme-3.

The record behind these values is ChEMBL document CHEMBL1152069, “Synthesis and biological properties of carboranylaziridines bearing cascade polyols” (Bioorg Med Chem Lett, 1996).
